Assay results taken from patent US12485106B2, “Methods of treating fibrotic liver diseases or conditions with indeglitazar” (PLEIOGENIX INC., priority 2023, dated 2025).

Key:
[1] = test system: mouse model of human alcoholic hepatitis; assay: AH (NIAAA) mouse model, 8-week efficacy and safety study, alone and with prednisolone
Excerpt: Mice were fed with the ethanol diet for four weeks, followed by 4 weeks of intervention (8 weeks total treatment).
Livers were collected at the end-point from all mice and weighed. Liver samples were processed for histology to assess steatosis, inflammatory infiltrates and fibrosis. Briefly, liver tissue was fixed in 4% paraformaldehyde and paraffin-embedded, sectioned into 5 m thickness, and stained with hematoxylin-eosin (H&E), Oil-Red O staining, and Masson's trichrome staining.
Safety testing: The safety of indeglitazar treatment was assessed by body weight measurements and full necropsy at endpoint. Mice were terminated from the experiment by isoflurane anesthesia and blood was collected by a cardiac bleed into EDTA-treated tubes, and then centrifuged to obtain plasma to conduct clinical chemistry including full liver and renal toxicology panel. A portion of the liver was analyzed for liver triglycerides and cholesterol levels by biochemical assays. […] Hearts were weighted and fixed in 10% NBF, paraffin embedded, and sectioned into 4-μm thick slices. H&E staining was used to investigate myocardial cell hypertrophy, and ventricle diameters by microscopy.

alcoholic hepatitis = details: human, in vivo; cited from earlier work
NASH = details: human, in vivo; cited from earlier work
[2] = indeglitazar 50 mg/kg, prednisolone 10 mg/kg, vs EtOH-treated vehicle control
[3] = indeglitazar 50 mg/kg, prednisolone 10 mg/kg, vs ethanol-treated vehicle control
[4] = indeglitazar 50 mg/kg, prednisolone 10 mg/kg, vs vehicle+EtOH
[5] = indeglitazar 50 mg/kg/day, prednisolone 10 mg/kg/day, vs ethanol-treated vehicle control

C[C@]12C=CC(=O)C=C1CC[C@@H]1[C@@H]2[C@@H](O)C[C@@]2(C)[C@H]1CC[C@]2(O)C(=O)CO [Prednisolone, prednisolone, reference compound]
liver histopathology: steatosis, hepatocellular karyomegaly, and ballooning ([1]; indeglitazar 50 mg/kg, prednisolone 10 mg/kg, data not shown): no significant effect | effect on liver hydroxyproline [1, 2]: no significant effect | effect on plasma adiponectin [1, 2]: no significant effect | effect on ALT [1, 3]: no significant effect | effect on AST [1, 3]: no significant effect | effect on total bilirubin [1, 3]: increased | decrease of plasma TGFβ [1, 4]: 56% | increase of adiponectin [1, 4]: +3.4% | effect on body weight [1, 5]: Neither EtOH (vs no EtOH vehicle control), indeglitazar, or prednisolone had a significant effect | effect on heart weight (actual) [1, 5]: Neither EtOH (vs no EtOH vehicle control), indeglitazar, or prednisolone had a significant effect | effect on overall survival ([1]; indeglitazar 50 mg/kg/day, prednisolone 10 mg/kg/day, vs ethanol-treated vehicle control, male and female mice): no significant effect | effect on liver triglycerides ([1]; prednisolone 10 mg/kg, vs vehicle+EtOH): no significant effect | increase of plasma TNF-α ([1]; prednisolone 10 mg/kg, vs vehicle+EtOH, P<0.0001): 123% | change of hydroxyproline (signed) ([1]; prednisolone 10 mg/kg, vs vehicle+EtOH, P>0.05): −7%

CC(=O)CCCCn1c(=O)c2c(ncn2C)n(C)c1=O [pentoxifylline]
overall survival and liver damage in AH patients (alcoholic hepatitis): failed to improve overall survival or to decrease liver damage

vitamin E
improvement of NASH, share of people treated (NASH): about half
